Measurements from patent US20260265246A1 (ICAHN SCHOOL OF MEDICINE AT MOUNT SINAI, priority 2021, published 2026).
Read-outs that look alike come from different tables or passages of the source.

Columns and labels:
[1] = target: T1, 5HT2A receptor (Homo sapiens, UniProt P28223); assay: cell-based; design: expressed in transfected cells; host or cells: HEK293T cells, transient co-transfection; details: for Emax: HEK-293T
[2] = target: T1, 5HT2A receptor; assay: cell-based; design: expressed in transfected cells; host or cells: HEK293T cells, transient co-transfection; details: for Emax: HEK-293T; remark: listed apart in the source
[3] = target: T1, 5HT2A receptor; assay: biochemical; type: binding; design: expressed in transfected cells; crude membranes
[4] = BRET2 Gαq dissociation, HEK293T cells, read-out: 5HT2A Gq EC50
[5] = BRET2 Gαq dissociation, HEK293T cells, normalized to 5-HT, read-out: 5HT2A Gq Emax (%)
[6] = 5HT2A β-Arr EC50 (nM), BRET1 beta-arrestin2 recruitment, HEK293T cells
[7] = BRET1 beta-arrestin2 recruitment, HEK293T cells, normalized to 5-HT, read-out: 5HT2A β-Arr Emax (%)
[8] = secondary radioligand binding, Ki from IC50 by Cheng-Prusoff, read-out: 5HT2A Ki
[9] = BRET2 Gαq dissociation, HEK293T, read-out: 5HTA Gq EC50
[10] = BRET2 Gαq dissociation, HEK293T, normalized to 5-HT, read-out: 5HTA Gq Emax (%)
[11] = 5HT2A β-Arr EC50 (nM), BRET1 beta-arrestin2 recruitment, HEK293T
[12] = BRET1 beta-arrestin2 recruitment, HEK293T, normalized to 5-HT, read-out: 5HT2A β-Arr Emax (%)
[13] = 5HT2A Ki (nM), secondary binding assay, Cheng-Prusoff
[14] = 5HTA Gq EC50 (nM), BRET2 Gαq dissociation, HEK293T
[15] = 5HT2A Ki (nM), secondary radioligand binding, Ki from IC50 by Cheng-Prusoff
[16] = 5HT2A Gq EC50 (nM), BRET2 Gαq dissociation, HEK293T cells
[17] = BRET1 beta-arrestin2 recruitment, HEK293T cells, read-out: 5HT2A β-Arr EC50
[18] = BRET1 beta-arrestin2 recruitment, HEK293T, read-out: 5HT2A β-Arr EC50

T1 sequence (P28223 whole entry): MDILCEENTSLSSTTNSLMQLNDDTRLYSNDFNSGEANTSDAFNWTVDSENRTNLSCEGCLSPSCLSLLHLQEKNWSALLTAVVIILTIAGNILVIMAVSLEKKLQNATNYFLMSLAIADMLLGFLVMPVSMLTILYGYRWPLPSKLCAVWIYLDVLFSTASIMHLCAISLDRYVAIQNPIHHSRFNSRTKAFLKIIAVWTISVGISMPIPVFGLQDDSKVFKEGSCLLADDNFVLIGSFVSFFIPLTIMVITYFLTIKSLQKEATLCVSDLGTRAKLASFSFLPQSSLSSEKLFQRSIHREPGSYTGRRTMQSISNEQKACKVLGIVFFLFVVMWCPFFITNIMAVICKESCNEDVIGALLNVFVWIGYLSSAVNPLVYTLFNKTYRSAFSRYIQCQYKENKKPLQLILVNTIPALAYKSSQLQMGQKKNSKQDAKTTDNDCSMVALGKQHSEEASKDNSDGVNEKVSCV

| Compound | Emax [1, 5] [%] | EC50 [2, 6] [nM] | Emax [2, 7] [%] | Emax [1, 10] [%] | EC50 [2, 11] [nM] | Emax [2, 12] [%] | Ki [3, 13] [nM] | Ki [3, 15] [nM] | further results |
| --- | --- | --- | --- | --- | --- | --- | --- | --- | --- |
| CN1CCC=C(c2n[nH]c3ccccc23)C1 [Example 46, 3-(1-methyl-1,2,5,6-tetrahydropyridin-3-yl)-1H-indazole] | 62.6 | 115 | 21.9 |  |  |  |  |  | EC50 [1, 4]: 3.3 nM; Ki [3, 8]: 87.3 nM |
| CCCN1CCC=C(c2c[nH]c3c(CC)cccc23)C1 [Example 158, 7-ethyl-3-(1-propyl-1,2,5,6-tetrahydropyridin-3-yl)-1H-indole] |  |  |  | 82.2 | 120 | 32.6 | 368 |  | EC50 [1, 9]: 78.4 nM |
| Cc1cccc2c(C34CNCC3C4)n[nH]c12 (centres unmarked) [Example 186, 3-(3-azabicyclo[3.1.0]hexan-1-yl)-7-methyl-1H-indazole] |  |  |  | 98.8 | 481 | 46.9 | 748 |  | EC50 [1, 14]: 231 nM |
| C1=C(c2n[nH]c3ccccc23)CNCC1 [Example 45, 3-(1,2,5,6-tetrahydropyridin-3-yl)-1H-indazole] | 98.3 | 138 | 68.1 |  |  |  |  | 113 |  |
| COc1cccc2[nH]nc(C3=CCCN(C)C3)c12 [Example 100, 4-methoxy-3-(1-methyl-1,2,5,6-tetrahydropyridin-3-yl)-1H-indazole] | 63.9 | 460 | 52.4 |  |  |  |  | 349 | EC50 [1, 4]: 91.6 nM |
| COc1ccc2[nH]nc(C3=CCCN(C)C3)c2c1 [Example 104, 5-methoxy-3-(1-methyl-1,2,5,6-tetrahydropyridin-3-yl)-1H-indazole] | 88.2 | 681 | 83.7 |  |  |  |  | 501 | EC50 [1, 4]: 82.8 nM |
| CCCc1cccc2c(C3=CCCN(CC)C3)c[nH]c12 [Example 245, 3-(1-ethyl-1,2,5,6-tetrahydropyridin-3-yl)-7-propyl-1H-indole] |  |  |  |  | 1300 |  | 600 |  | EC50 [1, 14]: 392 nM; Emax ([1]; read-out: 5HTA Gq Emax (%), BRET2 Gαq dissociation, HEK293T, normalized to 5-HT): 87.5%; Emax ([2]; read-out: 5HT2A β-Arr Emax (%), BRET1 beta-arrestin2 recruitment, HEK293T, normalized to 5-HT): 44.8% |
| Fc1ccnc2[nH]cc(C3=CCCNC3)c12 [Example 119, 4-fluoro-3-(1,2,5,6-tetrahydropyridin-3-yl)-1H-pyrrolo[2,3-b]pyridine] | 88.2 | 1520 | 53.8 |  |  |  |  | 844 | EC50 [1, 16]: 193 nM |
| CN1CCC=C(c2c[nH]c3c(F)cccc23)C1 [Example 56, 7-fluoro-3-(1-methyl-1,2,5,6-tetrahydropyridin-3-yl)-1H-indole] | 96.9 |  | 49.5 |  |  |  |  |  | EC50 [1, 4]: 16.8 nM; EC50 [2, 17]: 57.7 nM; Ki [3, 8]: 59.8 nM |
| CCCN1CCC=C(c2c[nH]c3c(C)cccc23)C1 [Example 155, 7-methyl-3-(1-propyl-1,2,5,6-tetrahydropyridin-3-yl)-1H-indole] |  |  |  | 68.5 | 532 | 34.4 | 539 |  | EC50 [1, 9]: 29.5 nM |
| Fc1ccc2[nH]nc(C3=CCCNC3)c2c1 [Example 85, 5-fluoro-3-(1,2,5,6-tetrahydropyridin-3-yl)-1H-indazole] | 88.3 |  | 96 |  |  |  |  |  | EC50 [1, 4]: 2.8 nM; EC50 [2, 17]: 68.6 nM; Ki [3, 8]: 33.4 nM |
| CCN1CCC=C(c2n[nH]c3c(Cl)cccc23)C1 [Example 145, 7-chloro-3-(1-ethyl-1,2,5,6-tetrahydropyridin-3-yl)-1H-indazole] |  |  |  | 64.4 |  | 42.4 | 123 |  | EC50 [1, 9]: 23.3 nM; EC50 [2, 18]: 77 nM |
| COc1cnc2[nH]cc(C3=CCCN(C)C3)c2c1 [Example 6, 5-methoxy-3-(1-methyl-1,2,5,6-tetrahydropyridin-3-yl)-1H-pyrrolo[2,3-b]pyridine] | 65.9 | 792 | 33.4 |  |  |  |  | 695 | EC50 [1, 16]: 44.1 nM |
| CCCN1CCC=C(c2n[nH]c3cccc(C#N)c23)C1 [Example 175, 3-(1-propyl-1,2,5,6-tetrahydropyridin-3-yl)-1H-indazole-4-carbonitrile] |  |  |  | 46.3 | 343 | 31.6 | 8250 |  | EC50 [1, 9]: 88.8 nM |
| Cc1cccc2c(N3CCNCC3)n[nH]c12 [Example 230, 7-methyl-3-(piperazin-1-yl)-1H-indazole] |  |  |  | 66.1 | 917 | 45.3 | 715 |  | EC50 [1, 14]: 248 nM |
| CCCN1CCC=C(c2c[nH]c3c(C)cc(F)cc23)C1 [Example 161, 5-fluoro-7-methyl-3-(1-propyl-1,2,5,6-tetrahydropyridin-3-yl)-1H-indole] |  |  |  | 93.2 | 311 | 35.2 | 488 |  | EC50 [1, 9]: 84.1 nM |
| Clc1cccc2c(C3=CCNC3)c[nH]c12 [Example 209, 7-chloro-3-(2,5-dihydro-1H-pyrrol-3-yl)-1H-indole] |  |  |  | 100 |  | 88.1 | 160 |  | EC50 [1, 9]: 8.1 nM; EC50 [2, 18]: 60.7 nM |
| Cc1cc(F)cc2c(C3=CCCN(C)C3)c[nH]c12 [Example 116, 5-fluoro-7-methyl-3-(1-methyl-1,2,5,6-tetrahydropyridin-3-yl)-1H-indole] | 125 | 129 | 56.1 |  |  |  |  |  | EC50 [1, 4]: 74 nM; Ki [3, 8]: 99.6 nM |
| Fc1ccc(Cl)c2[nH]nc(C3=CCCNC3)c12 [Example 131, 7-chloro-4-fluoro-3-(1,2,5,6-tetrahydropyridin-3-yl)-1H-indazole] |  |  |  | 106 |  | 72.7 |  |  | EC50 [1, 9]: 7.2 nM; EC50 [2, 18]: 17.4 nM; Ki ([3]; secondary binding assay, Cheng-Prusoff, read-out: 5HT2A Ki): 47.5 nM |
| CN1CCC=C(c2c[nH]c3ncc(F)cc23)C1 [Example 118, 5-fluoro-3-(1-methyl-1,2,5,6-tetrahydropyridin-3-yl)-1H-pyrrolo[2,3-b]pyridine] | 109 | 49.4 | 56.7 |  |  |  |  | 80.3 | EC50 [1, 16]: 31.6 nM |
| N#Cc1ccc2c(C3=CCCNC3)n[nH]c2c1 [Example 79, 3-(1,2,5,6-tetrahydropyridin-3-yl)-1H-indazole-6-carbonitrile] | 48.6 | 1710 | 82.1 |  |  |  |  | 441 | EC50 [1, 16]: 874 nM |
| Cc1cccc2c(C34CCNCC3C4)n[nH]c12 (centres unmarked) [Example 226, 3-(3-azabicyclo[4.1.0]heptan-6-yl)-7-methyl-1H-indazole] |  |  |  | 91 | 2000 | 52.1 | 4630 |  | EC50 [1, 14]: 1350 nM |
| Cc1ccnc2c(C3=CCCN(C)C3)c[nH]c12 [Example 137, 7-methyl-3-(1-methyl-1,2,5,6-tetrahydropyridin-3-yl)-1H-pyrrolo[3,2-b]pyridine] |  |  |  | 74.4 | 372 | 44.6 | 531 |  | EC50 [1, 14]: 57.6 nM |
| Cc1cccc2c(C3=CCCN(C)C3)n[nH]c12 [Example 105, 7-methyl-3-(1-methyl-1,2,5,6-tetrahydropyridin-3-yl)-1H-indazole] | 75.4 | 432 | 45.7 |  |  |  |  | 1340 | EC50 [1, 4]: 35.4 nM |
